Experiments:
human TLR7 = target: T1, human TLR7 (Homo sapiens, UniProt Q9NYK1); test: TLR7 reporter gene assay (HEK293, NF-kB-driven luciferase); assay type: cell-based; details: HEK293 cells stably transfected with human TLR7 and NF-kB-driven luciferase reporter
T1 construct: expressed in transfected cells; host or cells: HEK293
T1 sequence (Q9NYK1 27-1049): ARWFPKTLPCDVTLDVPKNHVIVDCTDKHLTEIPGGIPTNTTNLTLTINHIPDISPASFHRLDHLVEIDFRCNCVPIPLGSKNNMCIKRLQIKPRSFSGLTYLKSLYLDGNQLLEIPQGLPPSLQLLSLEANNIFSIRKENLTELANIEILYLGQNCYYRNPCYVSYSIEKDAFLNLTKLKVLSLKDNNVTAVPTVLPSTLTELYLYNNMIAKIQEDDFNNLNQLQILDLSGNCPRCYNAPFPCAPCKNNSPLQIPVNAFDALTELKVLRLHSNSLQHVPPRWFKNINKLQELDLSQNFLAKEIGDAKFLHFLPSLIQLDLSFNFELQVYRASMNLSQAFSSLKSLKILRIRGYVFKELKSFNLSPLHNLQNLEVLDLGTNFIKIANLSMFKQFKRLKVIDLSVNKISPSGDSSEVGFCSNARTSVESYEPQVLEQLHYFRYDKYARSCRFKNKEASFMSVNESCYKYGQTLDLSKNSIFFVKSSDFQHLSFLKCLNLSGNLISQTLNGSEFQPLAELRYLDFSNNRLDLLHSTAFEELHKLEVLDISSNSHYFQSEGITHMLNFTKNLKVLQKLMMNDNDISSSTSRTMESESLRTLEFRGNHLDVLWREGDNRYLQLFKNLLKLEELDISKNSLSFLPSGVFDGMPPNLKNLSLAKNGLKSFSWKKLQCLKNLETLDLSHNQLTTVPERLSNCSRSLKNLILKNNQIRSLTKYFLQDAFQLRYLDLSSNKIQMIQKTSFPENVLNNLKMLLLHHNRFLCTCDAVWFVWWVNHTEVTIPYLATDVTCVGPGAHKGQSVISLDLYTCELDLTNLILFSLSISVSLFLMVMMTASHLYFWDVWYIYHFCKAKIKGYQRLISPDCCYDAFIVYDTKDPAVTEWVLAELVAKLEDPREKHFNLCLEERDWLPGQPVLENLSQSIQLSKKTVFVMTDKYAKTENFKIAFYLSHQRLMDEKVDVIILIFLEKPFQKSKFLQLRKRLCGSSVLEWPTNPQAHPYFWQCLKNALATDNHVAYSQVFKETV
Protocol: Compounds of Formula (I) were assayed to measure their activity as toll-like receptor 7 agonists.
As a control assay, normal HEK293 transfected with pNifty-Luc were used. […] Bright-Glo™ Luciferase assay buffer and substrate were supplied by Promega # E263B and # E264B (assay substrate and buffer respectively). 384 well clear-bottom plates were supplied by Greiner bio-one (#789163-G) and were custom bar-coded plates.
Cells were plated at 25,000 cells/well in 384-well plates in a final volume of 50 μl of media. Cells were allowed to adhere to the plates after overnight (18 hours) culture at 37° C. and 5% CO2. Serially diluted experimental and positive control compounds were then dispensed to each well and incubated for 7 hours at 37° C. and 5% CO2. Cells stimulated with DMSO alone also serve as negative controls. After the incubation, 30 μl of the pre-mix assay buffer and substrate buffer were added to each well according to manufacturer's instructions. The luminescence signal was read on a CLIPR machine with an integration time of 20 seconds per plate.

[1] = In vitro stability of conjugates in mouse serum (deconjugation and succinimide ring hydrolysis by LC-MS); assay type: in vitro ADME; details: anti-HER2 mAb2 conjugates, 37° C.
Protocol: The stability of the bond formed between maleimide containing payloads and Cys residues of the antibody is enhanced by the hydrolysis of the succinimide ring formed in this reaction. The effects of succinimide ring hydrolysis on the stability of antibody conjugates prepared with agonist compounds of the invention were studied after in vitro incubation in mouse serum. Mass changes resulting from payload deconjugation and the hydrolysis of the succinimide ring of maleimide payloads conjugated to antibodies were monitored by LC-MS. The hydrolysis of the succinimide ring has been reported to be stimulated by certain conditions such as high pH, high temperature, or high salts (J. Am. Chem. Soc. 1955, 77: 3922; Biochemistry 1976, 15: 2836; Biochem. J. 1979, 179: 191-197; J Pharm Sci. 1984, 73:1767-1771; Bioorg. Med. Chem. Lett. 17: 6286-6289, 2007). To probe the in vitro stability of conjugates, anti-HER2 antibody mAb2 conjugates were incubated at 37° C. in 50-70% mouse serum. […] The light chain, heavy chain Fab, and heavy chain Fc fragments were then analyzed by ESI-MS. The relative populations of deconjugated antibody, conjugates with attached payload with hydrolyzed succinimide ring, and conjugates with attached payload with intact succinimide ring, were calculated from the relative MS intensities of the corresponding conjugate species. […]

Row | conjugate stability (deconjugation through reverse maleimide reaction, succinimide ring hydrolysis) [1] | SMILES | EC50 (human TLR7) [nM]
1 | – | CCCC[C@@H](CO)Nc1nc(N)nc2ccn(Cc3cc(CN4CCN(C(=O)CCCC(=O)NCCCC[C@H](N)C(=O)O)CC4)ccc3OC)c12 [Compound C-48, (S)-2-amino-6-(5-(4-(3-((2-amino-4-(((S)-1-hydroxyhexan-2-yl)amino)-5H-pyrrolo[3,2-d]pyrimidin-5-yl)methyl)-4-methoxybenzyl)piperazin-1-yl)-5-oxopentanamido)hexanoic acid] | 1900
2 | improved conjugate stability | CCCCCNc1nc(N)nc2ccn(Cc3ccc(CN4CCN(CCN5C(=O)C=CC5=O)CC4)cc3OC)c12 [Compound C-5, 1-(2-(4-(4-((2-amino-4-(pentylamino)-5H-pyrrolo[3,2-d]pyrimidin-5-yl)methyl)-3-methoxybenzyl)piperazin-1-yl)ethyl)-1H-pyrrole-2,5-dione] | –
3 | – | CCCCCNc1nc(N)nc2ccn(Cc3ccc(CN4CCN(CCO)CC4)cc3OC)c12 [Compound C-68, 2-(4-(4-((2-amino-4-(pentylamino)-5H-pyrrolo[3,2-d]pyrimidin-5-yl)methyl)-3-methoxybenzyl)piperazin-1-yl)ethan-1-ol] | < 1
4 | improved conjugate stability | CCCCCNc1nc(N)nc2ccn(Cc3ccc(CN4CCN(C(=O)CCOCCOCCNC(=O)CN5C(=O)C=CC5=O)CC4)cc3OC)c12 [Compound C-21, N-(2-(2-(3-(4-(4-((2-amino-4-(pentylamino)-5H-pyrrolo[3,2-d]pyrimidin-5-yl)methyl)-3-methoxybenzyl)piperazin-1-yl)-3-oxopropoxy)ethoxy)ethyl)-2-(2,5-dioxo-2,5-dihydro-1H-pyrrol-1-yl)acetamide] | –
